From article PMC4393105, “tRNA^Glu Increases the Affinity of Glutamyl-tRNA Synthetase for Its Inhibitor Glutamyl-Sulfamoyl-Adenosine, an Analogue of the Aminoacylation Reaction Intermediate Glutamyl-AMP: Mechanistic and Evolutionary Implications” (PLoS ONE, 2015)
“And” between values parts separate entries of the source, which are not always exact repeats. Identical values can stand only once.

Legend:
murine hepatic GluRS = tested on: murine hepatic GluRS; set-up: method as in PMID 15895686; settings: cited from earlier work
E. coli GluRS = molecular target: T1, E. coli GluRS (Escherichia coli, UniProt P04805); test: Isothermal titration microcalorimetry of Glu-AMS binding to GluRS in the absence of tRNA; settings: no tRNA; for Kd: Kd (dissociation constant), Kd = 1/Kb
T1 construct: His tag (histidine tag) (C); made in house
Experimental: (§1) Overproduction and purification of E. coli GluRS were performed as previously described with the following modifications. A C-terminal histidine-tagged GluRS was used instead of the N-terminal tagged one. The overproduction was induced overnight at 30°C with 1 mM IPTG.
(§2) The GluRS solution with or without tRNA was dialyzed overnight in a D-tube dialyzer (Novagen) against 2 L of dialysis buffer (50 mM HEPES-KOH, pH 7.2, 10 mM MgCl2) at 4°C with light stirring. The next morning, the dialyzed solution was recovered and the volume adjusted by adding dialysis buffer to obtain the desired concentration (typically 9 μM GluRS and 11 μM tRNA^Glu). This solution was kept on ice until use. Glu-AMS was diluted in the dialysis buffer to obtain a final concentration of 90 μM. All buffers and solutions were degased with stirring under vacuum. The microcalorimetry experiments were carried out in a VP-ITC 100 microcalorimeter (MicroCal, GE Healthcare) using deionized water as an internal reference for all assays. VPViewer ITC 2000 and Origin v 5.0 softwares (Microcal Software, Inc) were used for data collection and analysis, respectively.
(§3) To measure the thermodynamic parameters of the interaction between Glu-AMS and GluRS, in the presence and in the absence of tRNA, a solution containing 9 μM GluRS with or without a stoichiometric excess of tRNA^Glu or S. cerevisiae tRNA^Phe (Table 1) was placed in the sample cell of the microcalorimeter. The following conditions were used for all tests: reference power was set at 12 μcal/s and stirring at 300 rpm, the “high” feedback mode and “No check Temp”, “Fast Equil” and “Auto” ITC equilibration options were selected. The 90 μM Glu-AMS solution was loaded in the injection syringe. After a first injection of 1 μL over 2 s, a series of 39 injections (7.4 μL over 14.8 s) with 240 s between injections was performed. Injections of Glu-AMS in GluRS alone, GluRS•tRNA^Glu or GluRS•tRNA^Phe, were performed at 30°C (303 K), and done in duplicate. Injections of Glu-AMS in GluRS were also performed at 20°C and 37°C (293 and 310 K): 14 injections (20 μL over 40 s) followed the first injection of 1 μL. Each temperature was tested in duplicate, and in triplicate at 37°C.
(§4) The following nomenclature was used to describe the interaction at equilibrium between Glu-AMS and either GluRS or a GluRS•tRNA complex: GluRS•Glu-AMS↔GluRS+[…] Kd=[GluRS]×[Glu-AMS]/[GluRS•Glu-AMS] 1/Kd=Kb (binding constant, sometimes referred to as Ka).

[1] = molecular target: T2, E. coli GluRS + S. cerevisiae tRNA^Phe (Escherichia coli, UniProt P04805); test: Isothermal titration microcalorimetry of Glu-AMS binding to GluRS in the presence of non-cognate tRNA^Phe; settings: for Kd: Kd (dissociation constant), Kd = 1/Kb
T2 construct: His tag (histidine tag) (C); made in house
Experimental: as §1
Overproduction and purification of E. coli tRNA^Glu-enriched total tRNA was done as described. […] Saccharomyces cerevisiae tRNA^Phe, used as a negative control, was purchased from Sigma-Aldrich (cat No: R4018).
as §2, §3, §4

[2] = tested on: Escherichia coli glutamyl-tRNA synthetase (GluRS); set-up: method as in PMID 15895686; settings: competitive inhibitor; cited from earlier work
[3] = single ITC run, 293 K, [ligand] 90 µM, [GluRS] 4.15 µM
[4] = single ITC run, 293 K, [ligand] 90 µM, [GluRS] 4.35 µM
[5] = single ITC run, 303 K, [ligand] 90 µM, [GluRS] 4.143 µM
[6] = single ITC run, 303 K, [ligand] 90 µM, [GluRS] 5.355 µM
[7] = single ITC run, 310 K, [ligand] 90 µM, [GluRS] 3.169 µM
[8] = single ITC run, 310 K, [ligand] 90 µM, [GluRS] 3.931 µM
[9] = single ITC run, 310 K, [ligand] 90 µM, [GluRS] 4.015 µM
[10] = 30°C (303 K), weighted mean of ITC runs
[11] = single ITC run, tRNA^Phe 11.23 µM, 303 K, [ligand] 90 µM, [GluRS] 2.198 µM
[12] = single ITC run, tRNA^Phe 11.23 µM, 303 K, [ligand] 90 µM, [GluRS] 2.434 µM
[13] = with S. cerevisiae tRNA^Phe, 30°C, weighted mean of ITC runs

T1 sequence (P04805 whole entry): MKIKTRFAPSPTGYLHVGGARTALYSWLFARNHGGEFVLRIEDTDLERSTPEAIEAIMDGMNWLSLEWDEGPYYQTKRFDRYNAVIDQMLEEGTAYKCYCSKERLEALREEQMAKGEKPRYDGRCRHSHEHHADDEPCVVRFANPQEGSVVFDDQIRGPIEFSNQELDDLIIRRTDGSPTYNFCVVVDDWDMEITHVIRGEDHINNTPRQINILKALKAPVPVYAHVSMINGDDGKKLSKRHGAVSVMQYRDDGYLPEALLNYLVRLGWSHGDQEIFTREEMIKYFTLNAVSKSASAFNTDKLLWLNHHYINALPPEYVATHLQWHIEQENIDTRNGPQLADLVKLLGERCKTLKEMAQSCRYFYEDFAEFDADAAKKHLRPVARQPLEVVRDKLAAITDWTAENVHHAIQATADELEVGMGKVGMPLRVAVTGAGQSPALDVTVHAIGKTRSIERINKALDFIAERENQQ
T2 sequence (P04805 whole entry): as above

## Nc1ncnc2c1ncn2[C@@H]1O[C@H](COS(=O)(=O)NC(=O)[C@@H](N)CCC(=O)O)[C@@H](O)[C@H]1O [Glu-AMS, 5’-O-[N-(L-glutamyl)sulfamoyl]adenosine]
Murine hepatic GluRS
  times less efficient against murine hepatic GluRS than against E. coli GluRS: 25 times
E. coli GluRS; [3]
  Kd: 545 ± 162 nM
  -TΔSb: -4495 ± 320
  n (stoichiometry coefficient): 1.014 ± 0.054
  ΔGb (reaction energy): -8.397 kcal/mol
  ΔHb (reaction enthalpy): -3.909 ± 0.279 kcal/mol
  ΔSb (reaction entropy): 15.34 ± 1.09 cal/mol·K
E. coli GluRS; [4]
  Kd: 547 ± 150 nM
  -TΔSb: -4465 ± 297
  n (stoichiometry coefficient): 1.006 ± 0.050
  ΔGb (reaction energy): -8.395 kcal/mol
  ΔHb (reaction enthalpy): -3.946 ± 0.263 kcal/mol
  ΔSb (reaction entropy): 15.24 ± 1.01 cal/mol·K
E. coli GluRS; [5]
  Kd: 281 ± 39 nM
  -TΔSb: -3936 ± 97
  n (stoichiometry coefficient): 0.9963 ± 0.0184
  ΔGb (reaction energy): -9.083 kcal/mol
  ΔHb (reaction enthalpy): -5.142 ± 0.127 kcal/mol
  ΔSb (reaction entropy): 12.99 ± 0.32 cal/mol·K
E. coli GluRS; [6]
  Kd: 307 ± 28 nM
  -TΔSb: -4018 ± 58
  n (stoichiometry coefficient): 1.001 ± 0.011
  ΔGb (reaction energy): -9.029 kcal/mol
  ΔHb (reaction enthalpy): -5.007 ± 0.073 kcal/mol
  ΔSb (reaction entropy): 13.26 ± 0.19 cal/mol·K
E. coli GluRS; [7]
  Kd: 256 ± 20 nM
  -TΔSb: -2680 ± 41
  n (stoichiometry coefficient): 0.9997 ± 0.0114
  ΔGb (reaction energy): -9.349 kcal/mol
  ΔHb (reaction enthalpy): -6.654 ± 0.102 kcal/mol
  ΔSb (reaction entropy): 8.646 ± 0.132 cal/mol·K
E. coli GluRS; [8]
  Kd: 318 ± 82 nM
  -TΔSb: -2978 ± 147
  n (stoichiometry coefficient): 1.005 ± 0.037
  ΔGb (reaction energy): -9.217 kcal/mol
  ΔHb (reaction enthalpy): -6.225 ± 0.307 kcal/mol
  ΔSb (reaction entropy): 9.607 ± 0.473 cal/mol·K
E. coli GluRS; [9]
  Kd: 231 ± 37 nM
  -TΔSb: -3531 ± 90
  n (stoichiometry coefficient): 1.006 ± 0.019
  ΔGb (reaction energy): -9.413 kcal/mol
  ΔHb (reaction enthalpy): -5.873 ± 0.15 kcal/mol
  ΔSb (reaction entropy): 11.39 ± 0.29 cal/mol·K
E. coli GluRS; [10]
  -TΔSb: -3.996 ± 0.05 kcal/mol
  n (stoichiometry coefficient): 0.9998 ± 0.0094
  ΔHb (reaction enthalpy): -5.041 ± 0.063 kcal/mol
  ΔSb (reaction entropy): 13.2 cal/mol·K and 13.19 ± 0.16 cal/mol·K
E. coli GluRS; 293 K, mean of ITC runs
  -TΔSb: -4.479 ± 0.218 kcal/mol
  n (stoichiometry coefficient): 1.0097 ± 0.0369
  ΔHb (reaction enthalpy): -3.929 ± 0.191 kcal/mol
  ΔSb (reaction entropy): 15.29 ± 0.74 cal/mol·K
E. coli GluRS; 293 K, mean of ITC runs, ΔGb = -RT Ln Kb
  ΔGb (reaction energy): -8.396 ± 0.0016 kcal/mol
E. coli GluRS; 310 K, mean of ITC runs
  -TΔSb: -2.835 ± 0.036 kcal/mol
  n (stoichiometry coefficient): 1.0016 ± 0.0095
  ΔHb (reaction enthalpy): -6.395 ± 0.081 kcal/mol
  ΔSb (reaction entropy): 9.146 ± 0.117 cal/mol·K
E. coli GluRS; 310 K, mean of ITC runs, ΔGb = -RT Ln Kb
  ΔGb (reaction energy): -9.326 ± 0.1 kcal/mol
E. coli GluRS; from ΔHb at 293, 303 and 310 K
  change in heat capacity (ΔCp): -143 ± 23 cal/mol·K
[1]; [11]
  Kd: 478 ± 86 nM
  -TΔSb: -3875 ± 242
  n (stoichiometry coefficient): 0.9925 ± 0.048
  ΔGb (reaction energy): -8.762 kcal/mol
  ΔHb (reaction enthalpy): -4.882 ± 0.305 kcal/mol
  ΔSb (reaction entropy): 12.79 ± 0.80 cal/mol·K
[1]; [12]
  Kd: 987 ± 190 nM
  -TΔSb: -1658 ± 172
  n (stoichiometry coefficient): 0.9835 ± 0.0809
  ΔGb (reaction energy): -8.326 kcal/mol
  ΔHb (reaction enthalpy): -6.657 ± 0.689 kcal/mol
  ΔSb (reaction entropy): 5.472 ± 0.57 cal/mol·K
[1]; versus absence of tRNA
  affinity of GluRS for Glu-AMS in the presence of the non-cognate tRNA^Phe: not altered
[1]; with S. cerevisiae tRNA^Phe, 30°C, simple average, ΔGb = -RT Ln Kb
  ΔGb (reaction energy): -8.544 ± 0.309 kcal/mol
[1]; [13]
  -TΔSb: -2.398 ± 0.14 kcal/mol
  n (stoichiometry coefficient): 0.9902 ± 0.0410
  ΔHb (reaction enthalpy): -5.173 ± 0.279 kcal/mol
  ΔSb (reaction entropy): 7.92 ± 0.46 cal/mol·K
[2]
  Ki: 2.8 nM
